The text below walks through data of patent publication US9988343B2, “Inhibitors of histone deacetylase” (Dana-Farber Cancer Institute, Inc., priority 2013, dated 2018).

The target of data set [1] is HDAC2 (Homo sapiens, UniProt Q92769). As to the kind of experiment: HDAC2 inhibitory activity (IC50). The class given is biochemical.
Description: (§1) HDAC inhibitor compounds designed and synthesized in accordance with the present invention were tested for their inhibitor activity against several different HDAC isoforms.
Data set [2] concerns MM.1S cells. Kind of data set: Immunoblot of histone and α-tubulin acetylation in MM.1S cells. The class given is cell-based, human. Particulars: 12 h, Compound 10 10 and 20 μM. A general note: Immunoblotting shows a protein as a band on a membrane.
The subject of data set [3] is MM cell lines. As to the kind of experiment: Cell growth inhibition assay (MTT) in MM cell lines. In kind it is cell-based, human. Particulars: MM.1S, RPMI8226, U266, OPM1, H929; 1.875-30 μM, 48 h and 72 h, MTT (FIG. 6A). As for the experimental part: To measure proliferation of MM cells, the rate of DNA synthesis was measured by ^3[H]-thymidine (Perkin-Elmer) uptake.
The growth inhibitory effect of Merck60 (HDACL, 2 inhibitor previously reported as compound #60 by Method et al. Bioorg. Med. Chem. Lett. 2008. 18(3):973-8) versus MS275 (HDAC1, 2, 3 inhibitor) was examined in MM cell lines using MTT assay. MM cells were cultured with Merck60 (left panel) or MS275 (right panel) for 48 hours. Cell growth was assessed by MTT assay. All experiments were performed 3 times in quadruplicate. Data represent mean±SD.
Cell growth was assessed by MTT assay. All experiments were performed 3 times in quadruplicate. Data represent mean±SD.

Data set [4] concerns the target HDAC1 (Homo sapiens, UniProt Q13547). Kind of data set: HDAC1 inhibitory activity (IC50). In kind it is biochemical.
Description: as §1
For data set [5], the system named is MM.1S cells. Kind of data set: Immunoblot of caspase-3 and PARP cleavage. In kind it is cell-based, human. The note with it: 15 μM (FIG. 6E).
Data set [6] concerns MM.1S xenograft. Kind of data set: Subcutaneous MM.1S murine xenograft model. In kind it is in vivo. Particulars: SCID mice.
Description: CB17 SCID mice (48-54 days old) were purchased from Charles River Laboratories (Wilmington, Mass.). All animal studies were conducted according to protocols approved by the Animal Ethics Committee of the Dana-Farber Cancer Institute. After irradiation (200cGy), mice were subcutaneously injected with 5×10^6 MM.1S cells in the right flank. […] Tumor size was measured every three days, and tumor volume was calculated with the formula: V=0.5 (a×b^2), where “a” is the long diameter of the tumor and “b” is the short diameter of the tumor. Mice were sacrificed when the tumor reached 2 cm in length or 2 cm^3 volume, or if mice appeared moribund to prevent unnecessary morbidity. Survival was evaluated from the first day of the treatment until death. […] These SCID mice were subcutaneously injected with 5×10^6 MM.1S cells. […] Tumor volume was calculated from caliper measurements twice weekly, and data represent mean±SD (FIG. 9A).
Data set [7] relates to RPMI8226 cells. As to the kind of experiment: Combination with carfilzomib, MTT assay. The note with it: RPMI8226, Compound 10 5, 10, 20 um + carfilzomib 3, 5, 7.5 nM, 24 h (FIG. 10). In kind it is cell-based, human. As for the experimental part: All experiments were performed 3 times in quadruplicate. Data represent mean+/−SD (FIG. 10). The y-axis (% control) indicates the relative number of viable cells after each treatment.
On the technique in general: Tetrazolium assays rely on reduction of a dye to a coloured formazan, in cell work by metabolically active cells.

The subject of data set [8] is pSTAT3 (Tyr705). As to the kind of experiment: Immunoblot of STAT3 phosphorylation in MM cells. The class given is cell-based, human. The note with it: MM.1S, 10 and 20 μM, 10 hours, then IL-6 10 ng/mL 4 hours (FIG. 6G). On the procedure:
MM cells were harvested and lysed using sodium dodecyl sulfate-polyacrylamide gel electrophoresis (SDS-PAGE) sample buffer containing 60 mM Tris-HCl, pH 6.8, 2% SDS, 10% glycerol, 0.005% bromophenol blue, 5 mM ethylenediaminetetraacetic acid, 5 mM NaF, 2 mM […], 1 mM phenylmethylsulfonyl fluoride (PMSF), 5 μg/mL leupeptin, and 5 μg/mL aprotinin; and then heated at 100° C. for 5 min. After the determination of protein concentration using DC protein assay (Bio-Rad, Hercules, Calif.), β-mercaptoethanol (β-ME) was added to the whole-cell lysates to a 2% final β-ME concentration. The whole-cell lysates were subjected to SDS-PAGE, transferred to nitrocellulose membranes (Bio-Rad, Hercules, Calif.) or polyvinylidene fluoride membranes (Millipore, Billerica, Mass.), and immunoblotted with anti-histone H3, -HDAC1, -HDAC2, -HDAC3, -Acetyl-histone H2A (Lysine 5) (Ac-H2AK5), -Acetyl-histone H2B (lysine 5) (Ac-H2 BK5), -Acetyl-histone H3 (lysine 9) (Ac-H3K9), -Acetyl-histone H4 (lysine 8) (Ac-H4K8), -glyceraldehyde-3-phosphate dehydrogenase (GAPDH), -poly (ADP-ribose) polymerase (PARP), -caspase-3, -caspase-8, -caspase-9, -Signal transducers and activators of transcription 3 (STAT3), -phospho-STAT3 (pSTAT3) (tyrosine 705), -pSTAT3 (serine 727), -p21, -Janus kinase 2 (JAK2), -acetylated-Lysine (Ac-K), and anti-phosphorylated-tyrosine antibodies (Abs; Cell Signaling Technology, Beverly, Mass.).
MM.1S, U266, and INA6 cells were cultured with DMSO control or LBH589 (50 and 100 nM) for 8 h.
MM.1S cells pretreated with or without 50 nM LBH589 for 8 hours were then treated with IL-6 (10 ng/mL) or BMSC culture supernatants (#1 and #2) for 15 minutes. Whole cell lysates were subjected to immunoblotting with anti-pSTAT3 (Tyr705) and STAT3 Abs.
In addition, INA-6 cells were cultured with DMSO control, LBH589 (50 nM), TSA (1 μM) or SAHA (2 μM) for 8 hours. Whole cell lysates were subjected to immunoblotting with anti-pSTAT3 (Tyr705), STAT3, and GAPDH Abs.
Whole cell lysates were subjected to immunoblotting with anti-pSTAT3 (Tyr705), -STAT3, -pERK1/2 (Thr202/204), and -ERK1/2 Abs (FIG. 6G).
See, e.g., Hideshima et al. Blood. 2006, 107:4053-4062. Since bortezomib upregulates activated STAT3 in head and neck squamous cell carcinoma (see, e.g., Li et al. Mol Cancer Ther 2009. 8:2211-2220), experiments were conducted to test whether bortezomib enhances p-STAT3 in MM cells. RPMI8226 cells were infected with Luc, HDAC1 (sh1), HDAC2 (sh1) or HDAC3 (sh1) shRNAs and then treated with or without bortezomib (5 nM) for 6 hours. Whole cell lysates were subjected to immunoblotting with anti-STAT3, -pSTAT3 (Tyr705), -pERK1/2 (Thr202/204) and -ERK1/2 Abs.

The test system of data set [9] is primary tumor cells from MM patients. Kind of data set: MTT growth assay in primary tumor cells from MM patients. The class given is cell-based, human. Particulars: 30 μM, 72 hours, MTT (FIG. 6B).
Description: BM specimens were obtained from patients with MM, and mononuclear cells (MNCs) were separated by Ficoll-Hipaque density sedimentation. Primary CD138+ plasma cells from MM patients were obtained using negative selection, as in previous studies. […] CD138-BMMNCs were used to establish long-term BMSC cultures, as previously described. […] Peripheral blood mononuclear cells were collected from healthy volunteers to obtain mononuclear cells (PBMCs). All procedures were performed with IRB-approved (Dana-Farber Cancer Institute) protocols and informed consent, and in accordance with the Declaration of Helsinki protocol. […] Cell growth was then assessed by MTT assay. Data represents mean±SD from triplicates cultures (FIG. 6B). […] Cell growth was assessed by MTT assay. The data represents mean±SD from triplicate cultures (FIG. 6C).
Data set [10] concerns MM.1S cells co-cultured with BMSCs. As to the kind of experiment: 3[H]-thymidine incorporation, MM.1S co-cultured with BMSCs. In kind it is cell-based, human. Particulars: 7.5, 15, 30 μM, 48 hours (FIG. 6D).
Description: To measure proliferation of MM cells, the rate of DNA synthesis was measured by ^3[H]-thymidine (Perkin-Elmer) uptake. […] Cell proliferation was measured by 3[H]-thymidine incorporation assay. Data represent mean±SD from quadruplicate cultures (FIG. 6D).

The structures appear in SMILES notation. pIC50: −log10 of the molar value. Where two headings read alike, the source gives them in different places.

Sequence of HDAC1 (Q13547 whole entry): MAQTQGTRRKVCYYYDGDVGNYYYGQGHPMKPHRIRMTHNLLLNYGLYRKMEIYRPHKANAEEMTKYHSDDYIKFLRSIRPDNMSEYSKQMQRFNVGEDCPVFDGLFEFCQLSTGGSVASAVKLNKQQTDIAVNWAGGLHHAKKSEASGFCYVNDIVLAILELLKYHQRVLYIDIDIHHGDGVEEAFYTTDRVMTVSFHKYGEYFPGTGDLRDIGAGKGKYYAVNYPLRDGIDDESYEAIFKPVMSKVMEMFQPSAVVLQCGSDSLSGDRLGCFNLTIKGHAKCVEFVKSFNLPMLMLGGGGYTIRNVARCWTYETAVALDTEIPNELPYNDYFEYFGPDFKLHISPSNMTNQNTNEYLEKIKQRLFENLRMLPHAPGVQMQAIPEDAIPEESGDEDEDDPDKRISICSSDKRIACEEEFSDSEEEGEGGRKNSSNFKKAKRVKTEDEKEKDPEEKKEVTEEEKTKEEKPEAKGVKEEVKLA
Sequence of HDAC2 (Q92769 whole entry): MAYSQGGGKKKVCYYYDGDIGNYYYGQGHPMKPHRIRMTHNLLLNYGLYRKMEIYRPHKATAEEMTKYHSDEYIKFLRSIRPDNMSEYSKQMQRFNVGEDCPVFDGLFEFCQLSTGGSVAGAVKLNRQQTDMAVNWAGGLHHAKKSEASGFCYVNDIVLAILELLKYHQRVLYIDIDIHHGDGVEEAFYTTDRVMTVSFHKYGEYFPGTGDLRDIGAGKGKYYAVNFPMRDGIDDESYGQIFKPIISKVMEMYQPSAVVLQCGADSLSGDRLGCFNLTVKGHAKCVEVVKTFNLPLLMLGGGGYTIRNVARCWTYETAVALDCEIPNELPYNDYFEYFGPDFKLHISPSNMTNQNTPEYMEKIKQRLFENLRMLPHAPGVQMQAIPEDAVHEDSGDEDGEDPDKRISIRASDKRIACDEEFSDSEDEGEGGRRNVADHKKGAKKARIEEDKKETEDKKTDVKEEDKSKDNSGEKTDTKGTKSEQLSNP

Turning to `Nc1ccccc1NC(=O)c1cnccn1` [Compound 10, N-(2-aminophenyl)pyrazine-2-carboxamide], the pIC50 in [1] (Table 2, read-out: HDAC2) was 5.83; in data set [1] (Table 3, read-out: IC50 against the deacetylase activity of HDAC2), 5.66; in data set [4] (Table 2, read-out: HDAC1), 6.04; in [4] (Table 3, read-out: IC50 against the deacetylase activity of HDAC1), 5.70. In [2] (LBH589 50 and 100 nM (FIG. 6F left)), the histone acetylation result is “significantly induced acetylation of histone H2A, H3, and H4”. The “α-tubulin acetylation (biomarker of HDAC6 inhibition)” value in data set [2] (LBH589 50 and 100 nM (FIG. 6F right)) is given as “did not increase α-tubulin acetylation”. For the same molecule, the MM cell growth entry in [3] is “significantly inhibited MM cell growth in a dose-dependent fashion”. The “caspase-3/PARP cleavage (apoptosis)” value in data set [5] is on record as “induces caspase-dependent apoptosis”. In addition, in data set [6] (15 and 50 mg/kg IP 5 days a week for 3 weeks, versus control, day 22 p<0.05 (FIG. 9A)), the “MM tumor growth (tumor volume)” value was “significantly inhibited MM tumor growth”. Further, the “tumor growth, combination with bortezomib” value in data set [6] (Compound 10 50 mg/kg + bortezomib 0.5 mg/kg sc twice a week, p<0.05) is given as “further enhanced either single agent activity”. For the same molecule, the “cytotoxicity induced by carfilzomib” value in [7] is “enhanced the cytotoxicity of carfilzomib”. Further, the p-STAT3 entry in data set [8] is recorded as “markedly downregulated p-STAT3”. Also, the “growth of patient-derived MM cells” value in data set [9] is reported as “potent growth inhibitory effect”. In addition, the “MM cell proliferation in the presence of BMSCs” value in data set [10] is given as “markedly inhibited MM cell growth even in the presence of BMSCs”.
